The CheMixHub viscosity set
“And” between values parts separate entries of the source, which are not always exact repeats. Identical values can stand only once.

Assay: xn = mol fraction of the nth substance listed

CC(=O)O + c1ccccc1
Details	viscosity
293.15 K, 101 kPa, x1 = 0.2158	0.658 mPa·s
293.15 K, 101 kPa, x1 = 0.3643	0.684 mPa·s
293.15 K, 101 kPa, x1 = 0.4322	0.67 mPa·s
293.15 K, 101 kPa, x1 = 0.5213	0.684 mPa·s
293.15 K, 101 kPa, x1 = 0.7321	0.723 mPa·s
293.15 K, 101 kPa, x1 = 0.9233	0.808 mPa·s
298.1 K, 101 kPa, x1 = 0.2	0.598 mPa·s
298.1 K, 101 kPa, x1 = 0.4	0.617 mPa·s
298.1 K, 101 kPa, x1 = 0.5	0.636 mPa·s
298.1 K, 101 kPa, x1 = 0.6	0.672 mPa·s
298.1 K, 101 kPa, x1 = 0.8	0.802 mPa·s
298.15 K, 101 kPa, x1 = 0.2158	0.632 mPa·s
298.15 K, 101 kPa, x1 = 0.3643	0.661 mPa·s
298.15 K, 101 kPa, x1 = 0.4322	0.65 mPa·s
298.15 K, 101 kPa, x1 = 0.5213	0.663 mPa·s
298.15 K, 101 kPa, x1 = 0.7321	0.668 mPa·s
298.15 K, 101 kPa, x1 = 0.9233	0.716 mPa·s
298.15 K, 101.33 kPa, x2 = 0.1	0.9008 mPa·s
298.15 K, 101.33 kPa, x2 = 0.1339	0.893 mPa·s
298.15 K, 101.33 kPa, x2 = 0.25	0.7374 mPa·s and 0.754 mPa·s
298.15 K, 101.33 kPa, x2 = 0.2921	0.734 mPa·s
298.15 K, 101.33 kPa, x2 = 0.4	0.655 mPa·s
298.15 K, 101.33 kPa, x2 = 0.4179	0.666 mPa·s
298.15 K, 101.33 kPa, x2 = 0.5	0.6298 mPa·s and 0.653 mPa·s
298.15 K, 101.33 kPa, x2 = 0.7231	0.597 mPa·s
298.15 K, 101.33 kPa, x2 = 0.75	0.5983 mPa·s
298.15 K, 101.33 kPa, x2 = 0.7711	0.596 mPa·s
298.15 K, 101.33 kPa, x2 = 0.8704	0.591 mPa·s
298.15 K, 101.33 kPa, x2 = 0.9645	0.594 mPa·s
303.15 K, 101 kPa, x1 = 0.2158	0.61 mPa·s
303.15 K, 101 kPa, x1 = 0.3643	0.628 mPa·s
303.15 K, 101 kPa, x1 = 0.4322	0.624 mPa·s
303.15 K, 101 kPa, x1 = 0.5213	0.642 mPa·s
303.15 K, 101 kPa, x1 = 0.7321	0.653 mPa·s
303.15 K, 101 kPa, x1 = 0.9233	0.71 mPa·s
303.15 K, 101 kPa, x2 = 0.1603	0.8519 mPa·s
303.15 K, 101 kPa, x2 = 0.39	0.6887 mPa·s
303.15 K, 101 kPa, x2 = 0.7224	0.5822 mPa·s
313.15 K, 101 kPa, x2 = 0.1603	0.7841 mPa·s
313.15 K, 101 kPa, x2 = 0.39	0.6245 mPa·s
313.15 K, 101 kPa, x2 = 0.7224	0.5111 mPa·s
323.15 K, 101 kPa, x2 = 0.1603	0.7112 mPa·s
323.15 K, 101 kPa, x2 = 0.39	0.5776 mPa·s
323.15 K, 101 kPa, x2 = 0.7224	0.4939 mPa·s

CCOC=O + c1ccccc1
viscosity [mPa·s], 101 kPa
Details	x1 = 0.2	x1 = 0.4	x1 = 0.5	x1 = 0.8
293.15 K	0.558	0.501	0.482	0.435
303.15 K	0.491	0.446	0.43	0.391
308.15 K	0.465	0.427	0.409	0.373

C[Si]1(C)O[Si](C)(C)O[Si](C)(C)O[Si](C)(C)O1 + c1ccccc1
101 kPa
Details	viscosity [mPa·s]
298.15 K, x1 = 0.0341	0.6224
298.15 K, x1 = 0.0699	0.6486
298.15 K, x1 = 0.1407	0.7099
298.15 K, x1 = 0.2235	0.7944
298.15 K, x1 = 0.2938	0.875
298.15 K, x1 = 0.3751	0.9814
298.15 K, x1 = 0.4689	1.113
298.15 K, x1 = 0.6211	1.363
298.15 K, x1 = 0.6777	1.466
298.15 K, x1 = 0.751	1.608
298.15 K, x1 = 0.8434	1.804
298.15 K, x1 = 0.8753	1.88
298.15 K, x1 = 0.9028	1.939
298.15 K, x1 = 0.9291	2.01
308.15 K, x1 = 0.0886	0.5768
308.15 K, x1 = 0.3517	0.818
308.15 K, x1 = 0.602	1.127
308.15 K, x1 = 0.7741	1.39
308.15 K, x1 = 0.8544	1.527
308.15 K, x1 = 0.9373	1.682
318.15 K, x1 = 0.0888	0.507
318.15 K, x1 = 0.3526	0.714
318.15 K, x1 = 0.6036	0.971
318.15 K, x1 = 0.7763	1.186
318.15 K, x1 = 0.8562	1.298
318.15 K, x1 = 0.9134	1.393
